Where two headings read alike, the source gives them in different places. No end group written: not given here.
Key:
S. aureus (MRSA SAP0017) = assay type: cell-based, Staphylococcus aureus; conditions: SPOT synthesized control peptides, determined as in Table 5; Table 7
Outline: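 Static biofilm assay: 1/100 dilutions of overnight cultures grown with peptide at varying concentrations, added at time zero, in BM2 biofilm medium or tryptic soy broth plus 1% glucose in polypropylene plates. After 22-46 h, adherent biofilm stained with crystal violet and absorbance read at 595 nm.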

MCP-1 = MCP-1 chemokine induction in human PBMCs, ELISA (Tables 6, 7; FIGS. 6-9, 13); assay type: cell-based; conditions: SPOT synthesized control peptides, determined as in Table 6; Table 7
Procedure: Venous blood (20 ml) from healthy volunteers was collected in Vacutainer® collection tubes containing sodium heparin as an anticoagulant (Becton Dickinson, Mississauga, ON) in accordance with UBC ethical approval and guidelines. Blood was diluted 1:1 with complete RPMI 1640 medium and separated by centrifugation over a Ficoll-Paque® Plus (Amersham Biosciences, Piscataway, N.J., USA) density gradient. White blood cells were isolated from the buffy coat, washed twice in PBS and then resuspended in RPMI 1640 complete medium (containing 10% fetal bovine serum), and the number of peripheral blood mononuclear cells (PBMC) was determined by Trypan blue exclusion. PBMCs (5×10^5) were seeded into 12-well tissue culture dishes (Falcon; Becton Dickinson) at 0.75-1×10^6 cells/ml at 37° C. in 5% CO2. The above conditions were chosen to mimic conditions for circulating blood monocytes entering tissues at the site of infection via extravasation.
Following incubation of the cells under various treatment regimens, the tissue culture supernatants were centrifuged at 1000×g for 5 min, then at 10,000×g for 2 min to obtain cell-free samples. Supernatants were aliquoted and then stored at −20° C. prior to assay for various chemokines by capture ELISA (eBioscience and BioSource International Inc., CA, USA respectively)

IL-1β = assay: Suppression of LPS-induced IL-1β production in human PBMCs, ELISA (Tables 6, 7; FIGS. 6-9, 13); conditions: SPOT synthesized control peptides, determined as in Table 6; Table 7
E. coli (Ec) [1] = assay type: cell-based
S. aureus (Sau) [2] = assay type: cell-based
E. coli (Ec) [3] = assay type: cell-based; remark: listed apart in the source
Procedure: (§1) The same strains as in Table 18 were assessed for Minimal Biofilm Inhibitory Concentrations (MBIC) (Table 19). Italics=excellent activity (less than or equal to 4 μg/ml). ND=Not determined. Peptides 3013, 3015 and 3016 inhibited biofilm growth in the largest number of bacterial strains (5, 5 and 6 out of 13 strains, respectively).
(§2) In addition, several peptides expressed preferential activity vs. biofilms (MBIC) cf. planktonic cells (MIC) (Table 20).

S. aureus (Sau) [4] = assay type: cell-based; remark: listed apart in the source
Procedure: as §1, §2

[5] = system: planktonic methicillin resistant S. aureus; assay: microbe, parasite or virus in culture; assay type: cell-based, Staphylococcus aureus
PBMCs = assay: Cytotoxicity towards PBMCs, lactate dehydrogenase (LDH) release assay (Tables 6, 7); conditions: SPOT synthesized peptide ~25 μM, PBMCs from 3 human donors; Table 6
[6] = planktonic methicillin resistant
[7] = planktonic methicillin resistant S. aureus, broth microdilution in Mueller Hinton Broth (MHB), mean of three biological replicates
[8] = planktonic methicillin resistant S. aureus, broth microdilution in Tryptic Soy Broth (TSB) supplemented with 1% glucose, mean of three biological replicates

Substance	% Biofilm Inhibition (S. aureus (MRSA SAP0017))	MCPI production in PBMC (MCP-1)	Fold Change in IL1-β relative to untreated LPS-stimulated cells (IL-1β)	also measured
C23 (LKKIIVQAVGLI) [Peptide C23]	97%	653 pg/mL	0.95	
C24 (LKILIAQAKKGL) [Peptide C24]	101%	1280 pg/mL	1.4	
C25 (IGQVVLVKIKIA) [Peptide C25]	98%	1762 pg/mL	1.21	
C26 (VWLAQKIGKWIW) [Peptide C26]	100%	1153 pg/mL	1.41	
C27 (KKAIKVVAIGRI) [Peptide C27]	102%	50 pg/mL	1.06	
C28 (WIIRWIKIWLKI) [Peptide C28]	72%	444 pg/mL	0.88	
C29 (VIAKIVLLRAGL) [Peptide C29]	100%	1809 pg/mL	0.99	
C30 (RGARVIRWKLRR) [Peptide C30]	100%	1153 pg/mL	1.23	
C31 (RAIIKQRWQRRW) [Peptide C31]	103%	1649 pg/mL	1.09	
C32 (QRWKKWKVLKLR) [Peptide C32]	102%	1614 pg/mL	1.11	
C33 (KIWLLKLRQRQK) [Peptide C33]	102%	1685 pg/mL	1.23	
C34 (WRIKKQWIQIIV) [Peptide C34]	99%	217 pg/mL	1.13	
C35 (IILKRVQVQKIK) [Peptide C35]	101%	481 pg/mL	1.1	
C36 (KRIKKLLKVVLK) [Peptide C36]	100%	719 pg/mL	0.92	
C37 (QQKVIRLLWKAK) [Peptide C37]	102%	216 pg/mL	0.83	
C38 (RIWRRAWKARWK) [Peptide C38]	102%	251 pg/mL	1.06	
C39 (KIKLIQKQLRIK) [Peptide C39]	98%	286 pg/mL	0.84	
C40 (ALLAGRKRAVAV) [Peptide C40]	102%	39 pg/mL	0.89	
C41 (KAVAGARQRWAL) [Peptide C41]	101%	353 pg/mL	0.82	
C42 (AIGAARAWRQWA) [Peptide C42]	102%	114 pg/mL	0.85	

Substance	% Biofilm Inhibition (S. aureus (MRSA SAP0017))	MCPI production in PBMC (MCP-1)	Fold Change in IL1-β relative to untreated LPS-stimulated cells (IL-1β)	also measured
C43 (AVIVRAAKGGAR) [Peptide C43]	103%	100 pg/mL	0.99	
C44 (LLKLKQKGIVIA) [Peptide C44]	102%	365 pg/mL	0.94	
C45 (QWLVKWVIIKVV) [Peptide C45]	102%	499 pg/mL	1	
C46 (IQIWIIRVIWRW) [Peptide C46]	102%	697 pg/mL	0.91	
C47 (KVIQWIIVRRVL) [Peptide C47]	102%	1193 pg/mL	0.76	
C48 (KVIKIVLVRVVK) [Peptide C48]	99%	1752 pg/mL	1.07	
C49 (WLKRIVKVVVLK) [Peptide C49]	103%	1557 pg/mL	0.8	
C50 (IKIVRRAKIIIW) [Peptide C50]	94%	222 pg/mL	0.91	
C51 (VKWKGKVIVVQL) [Peptide C51]	79%	862 pg/mL	0.81	
C52 (KIVQKKLRLVVI) [Peptide C52]	99%	291 pg/mL	0.76	
C53 (GKLKIKVKLGIA) [Peptide C53]	98%	113 pg/mL	0.94	
C54 (QVVVKKKAIQVV) [Peptide C54]	101%	651 pg/mL	0.95	
C55 (VAKVKKARWRLR) [Peptide C55]	102%	208 pg/mL	0.92	
C56 (IIKWIVVRQIRK) [Peptide C56]	102%	57 pg/mL	0.85	
C57 (KGKIRKIVLIRR) [Peptide C57]	102%	157 pg/mL	0.9	
IAWQLLWGWRVR-NH2 [Peptide 3022, IAWQLLWGWRVR]				MIC E. coli (E. coli (Ec) [1]; Ec): 8 µg/mL; MIC S. aureus (S. aureus (Sau) [2]; Sau): 8 µg/mL; MBIC E. coli (E. coli (Ec) [3]; Ec): 4 µg/mL; MBIC S. aureus (S. aureus (Sau) [4]; Sau): 4 µg/mL; MIC (μM) MHB [5, 6]: 4 µM; MIC (μM) TSB with 1% Glucose [5, 6]: 8 µM; % Toxicity (LDH Release) (PBMCs): −4.8%
IKIIWKALGQVI-NH2 [Peptide 3024, IKIIWKALGQVI]				MIC E. coli (E. coli (Ec) [1]; Ec): 4 µg/mL; MIC S. aureus (S. aureus (Sau) [2]; Sau): 16 µg/mL; MBIC E. coli (E. coli (Ec) [3]; Ec): 2 µg/mL; MBIC S. aureus (S. aureus (Sau) [4]; Sau): 8 µg/mL; MIC (μM) MHB [5, 7]: 16 µM; MIC (μM) TSB with 1% Glucose [5, 8]: 32 µM; % Toxicity (LDH Release) (PBMCs): −1.7%
ILVRWIRWRIQW-NH2 [Peptide 3002, ILVRWIRWRIQW]				MIC E. coli (E. coli (Ec) [1]; Ec): 8 µg/mL; MIC S. aureus (S. aureus (Sau) [2]; Sau): 8 µg/mL; MBIC E. coli (E. coli (Ec) [3]; Ec): 4 µg/mL; MBIC S. aureus (S. aureus (Sau) [4]; Sau): 4 µg/mL; MIC (μM) MHB [5, 6]: 2 µM; MIC (μM) TSB with 1% Glucose [5, 6]: 4 µM; % Toxicity (LDH Release) (PBMCs): −3.7%
IQRWWKVWLKVI-NH2 [Peptide 3004, IQRWWKVWLKVI]				MIC E. coli (E. coli (Ec) [1]; Ec): 4 µg/mL; MIC S. aureus (S. aureus (Sau) [2]; Sau): 8 µg/mL; MBIC E. coli (E. coli (Ec) [3]; Ec): 2 µg/mL; MBIC S. aureus (S. aureus (Sau) [4]; Sau): 1 µg/mL; MIC (μM) MHB [5, 6]: 4 µM; MIC (μM) TSB with 1% Glucose [5, 6]: 16 µM; % Toxicity (LDH Release) (PBMCs): 5.1%
IWLRLKVVLKRK-NH2 [Peptide 3006, IWLRLKVVLKRK]				MIC E. coli (E. coli (Ec) [1]; planktonic cells, Table 20): 2 µg/mL; MIC S. aureus (S. aureus (Sau) [2]; planktonic cells, Table 20): 8 µg/mL; MBIC E. coli (E. coli (Ec) [3]; biofilms, Table 20): 1 µg/mL; MBIC S. aureus (S. aureus (Sau) [4]; biofilms, Table 20): 1 µg/mL; MIC (μM) MHB [5, 7]: 4 µM; MIC (μM) TSB with 1% Glucose [5, 8]: 32 µM; % Toxicity (LDH Release) (PBMCs): 2.4%

From patent US20210138025A1, “CATIONIC PEPTIDES WITH IMMUNOMODULATORY AND/OR ANTI-BIOFILM ACTIVITIES” (priority 2018, published 2021)
